From patent US7279497B2, “Benzopyran derivatives substituted with secondary amines including imidazole, their preparation and pharmaceutical compositions containing them” (Korea Research Institute of Chemical Technology, priority 2002, dated 2007)

Tests used:
[1] = tested on: blood vessel formation in Matrigel plugs; experiment: In vivo mouse matrigel plug assay (hemoglobin content of plug); design: species or system C57BL/6 mice
Description: Antiangiogenic activities in vivo of the compounds of the formula 1 were determined by mouse matrigel plug assay.
The mixture of Matrigel, heparin (30 units), and bFGF (25 ng) were injected subcutaneously into C57BL/6 mice. The test compounds were injected subcutaneously at 2.2 mg/mL with matrigel, or administrated orally at 2 mg/day (twice a day, each 1 mg) during 4 days (total 8 mg/mouse). After 4-7 days, the skin of the mouse was pulled back, and matrigel plug was excised. The hemoglobin contents inside the Matrigel plugs were measured using the Drabkin method and Drabkin reagent (kit 525, Sigma) for the quantitation of blood vessel formation.

SPF SD rats = conditions: rat, in vivo, po;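 further: Six-week-old animals, two per group, followed across an observation period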
ischemic hearts = experiment: Cardioprotective activity in ischemic heart model of anesthetized rats; conditions: Rat in vivo, 0.3 mg/kg i.v.
Description: In order to determine whether the compounds of formula 1 are protective for ischemic hearts, experiments determining the anti-ischemic effects of the compounds on rats were conducted as follows. Male rats (350-450 g, obtained from the Experimental Animal Team of the Korea Research Institute of Chemical Technology) were anesthetized by the intraperitoneal injection of pentobarbital at a dose of 75 mg/kg. After trachetomy, the rats were rendered to respire artificially at a rate of 60/min with a stroke volume of 10 ml/kg. Cannulars were inserted into the fermoral vein and the fermoral artery and used for drug administration and blood pressure measurement, respectively. In the ischemic myocardial injury models, the body temperature has an important influence on the results. To avoid the change in the body temperature, a body temperature measuring probe was inserted into the rectum of each rat and the body temperature was constantly kept at 37° C. with the aid of a homeothermic blanket control unit. Afterwards, during testing, a continuous measurement was made of the mean arterial blood pressures and heart rates from the rats. For the measurement of the blood pressure, a pressure transducer (Statham P23XL, Grass Ins., MA, U.S.A.) was used. The heart rate was measured by a tachometer (ECG/RATE Coupler, Hugo Sachs Electronic, German) identified as Biotachometer. In addition, all of the changes occurring were continuously recorded through the Gould 2000 chart recorder ([…] Linearcorder W R 3310, Hugo Sachs Electronic). The left coronary artery was occluded according to the Selye H. method as follows. The rats underwent a left thoracotomy operation for partial opening of the chest and the right-side chest was pressurized by the middle finger of the left hand to push the heart out. Immediately after the left anterior descending coronary artery hereinafter referred to as (LAD) was carefully stitched using a suture needle with 5-0 silk ligature, the heart was then repositioned in the thoracic cavity while both ends of the ligature were situated outside. The opposite ligature ends were passed through a PE tube (PE100, 2.5 cm) and allowed to stand loose for 20 min for stabilization. Via the cannula inserted into the femoral vein, vehicles or drugs were administered into the rats which were rendered to stand for 30 min in order to sufficiently elicit the efficacies of the drugs. […] From the images input into the computer, the area of the normal blood stream tissue region which appeared blue in a computer monitor and the area which appeared colorless were measured. The percentage of the colorless area to the total area of each slice was calculated and multiplied by the weight of each slice to determine the area at risk (AAR) of each slice. […]

isolated rat aorta = experiment: Vasorelaxation effects on isolated blood vessels (methoxamine induced vasoconstriction)
Description: The following experiment was conducted to examine whether the compounds of the formula 1 have vasorelaxation effects.
Male Sprague-Dawly rats (350-450 g, obtained from the Experimental Animal Team of the Korea Research Institute of Chemical Technology) were knocked unconscious by hitting the occipital region, sacrificed by cervical dislocation, and underwent thoracotomy. After being quickly removed, the thoracic aorta was deprived of the adipose tissue and cut into aortic rings of 3 mm width. The aorta was lightly rubbed with a modified Krebs Henseleit buffer (Physiological Salt Solution, PSS) soaked cotton club to remove the inner epithelial layer therefrom. While being suspended in an organ bath containing a physiological buffer, the vascular tissue was allowed to equilibrate under a resting tension of 2 g and then, stand for 1 hour at 37° C. for stabilization with a supply of a carbogen consisting of 95% O2-5% CO2.
Thereafter, the vascular tissue was constricted with 10^−5 M phenylephrine and washed several times with PSS and this procedure was repeated again to ensure the stable reactivity of vascular smooth muscle to repetitive constriction/dilatation.
In addition, 3×10^−6 M methoxamine was used to induce an intensive constriction in the vascular smooth muscle. When the vasoconstriction induced by the methoxamine reached and maintained a maximum, test compounds and controls were cumulatively added to the organ baths in concentrations of 1, 3, 10 and 30 μM so as to induce vasodilatation. Cromakalim, BMS-180448, and BMS-191095 were used as the controls.
Following the addition of test compounds, the change in the maximal constriction induced by methoxamine was calculated to plot a concentration-relaxation response curve. Through a linear regression analysis, IC50, the drug concentration at which the vascular tissue is 50% dilated, was obtained for each compound.

[2] = tested on: HUVECs (Human umbilical vein endothelial cells); experiment: Inhibitory effects on HUVEC tube formation; format: cell-based;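 further: from minus no inhibition up to plus-plus-plus complete inhibition versus vehicle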
Procedure, shortened: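 HUVECs within passage 5 were plated on bFGF-reduced polymerized Matrigel and incubated with or without compound. Tube formation assessed as changes in cell morphology by phase-contrast microscopy and photography.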

COC(OC)[C@@]1(C)Oc2ccc([N+](=O)[O-])cc2[C@@H](N(Cc2ncc[nH]2)c2ccc(Cl)cc2)[C@@H]1O [Example 1, (2S,3S,4R)-3,4-dihydro-2-dimethoxymethyl-3-hydroxy-2-methyl-6-nitro-4-[N-(4-chlorophenyl)-N-(1H-imidazol-2-ylmethyl)amino]-2H-1-benzopyran]
% Inhibition (hemoglobin quantity) ([1]; S. C, 2.2 mg/mL with matrigel): 79% | % Inhibition (hemoglobin quantity) ([1]; oral, 2 mg/day during 4 days): 94% | clinical symptoms, body weight and mortality (SPF SD rats): no significant changes | AAR/LV (%) (ischemic hearts): 33.4% | IZ/AAR (%) (ischemic hearts): 41.2% | IC50 (isolated rat aorta; rat aorta constricted with methoxamine (3 μM)): 9.83 µM | vasorelaxant potency lower than BMS-180448 (isolated rat aorta; ratio of IC50): 7 times | Tube formation ([2]; 10 μM): + | Tube formation ([2]; 50 μM): + | Tube formation ([2]; 100 μM): ++
